According to patent US5231013A, “Polycyclic peptide antibiotic gallidermin” (priority 1988, dated 1993):
No end group written: not given here.

How the values were obtained:
Format in all cases: cell-based
[1] = tested on: Propionibacterium acnes; test: Comparative MIC study with epidermin
From the text: In a comparative study with epidermin or Propionibacterium acnes the following MIC values were obtained: […]

[2] = tested on: Mc. luteus 15957; test: MIC in liquid BF medium
Protocol: (§1) Minimal inhibitory concentrations (MIC, Table 1) were determined in liquid BF medium of the following composition: sodium lactate 0.5%, sodium sulfate 0.5%, potassium dihydrogenphosphate 0.05%, dipotassium hydrogenphosphate 0.15%, magnesium chloride 0.02%, ammonium chloride 0.05%, glucose 1%; supplemented (per ml) with Ca-pantothenate 50 μg, folic acid 0.25 μg, niacin 50 μg, p-aminobenzoic acid 25 μg, pyridoxal hydrochloride 50 μg and riboflavin 25 μg.

[3] = tested on: St. pneumoniae ATCC 6302; test: MIC in liquid BF medium
Protocol: as §1

[4] = tested on: Bac. fragilis (Koln); test: MIC in liquid BF medium
Protocol: as §1

[5] = tested on: Bac. fragilis (Bonn); test: MIC in liquid BF medium
Protocol: as §1

[6] = tested on: Sc. pyogenes ATCC 8668; test: MIC in liquid BF medium
Protocol: as §1

[7] = tested on: St. aureus E 88; test: MIC in liquid BF medium
Protocol: as §1

[8] = tested on: Ps. aeruginosa BC 19; test: MIC in liquid BF medium
Protocol: as §1

[9] = tested on: St. epidermidis ATCC 12228; test: MIC in liquid BF medium
Protocol: as §1

[10] = tested on: Sc. faecalis ATCC 29212; test: MIC in liquid BF medium
Protocol: as §1

[11] = tested on: Mc. luteus ATCC 9341; test: MIC in liquid BF medium
Protocol: as §1

[12] = tested on: E. coli ATCC 11775; test: MIC in liquid BF medium
Protocol: as §1

[13] = tested on: St. aureus SG 511; test: MIC in liquid BF medium
Protocol: as §1

[14] = tested on: Peptostreptococcus anaerobicus; test: MIC in liquid BF medium
Protocol: as §1

[15] = tested on: Cb. xerosis ATCC 9755; test: MIC in liquid BF medium
Protocol: as §1

## Epidermin (IASKFICTPGCAKTGSFNSYCC; cysteine pairing not given here; also: lantibiotic: post-translational modifications not placed; UniProt P08136 31-52, looked up) [known polycyclic lanthionine peptide antibiotic obtained by cultivating a strain of Staphylococcus epidermis; differs from gallidermin by one amino acid, reference compound]
[1]
  MIC: 0.25 µg/mL

## Gallidermin (IASKFLCTPGCAKTGSFNSYCC; cysteine pairing not given here; also: lantibiotic: post-translational modifications not placed; UniProt P21838 31-52, looked up) [polycyclic lanthionine peptide antibiotic produced by cultivation of Staphylococcus gallinarum (F16/P57) Tu 3928 (DSM 4616)]
[1]
  MIC: 0.125 µg/mL
[2]
  MIC: 0.5 µg/mL
[3]
  MIC: 4 µg/mL
[4]
  MIC: 128 µg/mL
[5]
  MIC: 128 µg/mL
[6]
  MIC: 1 µg/mL
[7]
  MIC: 8 µg/mL
[8]
  MIC: 128 µg/mL
[9]
  MIC: 4 µg/mL
[10]
  MIC: 64 µg/mL
[11]
  MIC: 0.25 µg/mL
[12]
  MIC: 128 µg/mL
[13]
  MIC: 4 µg/mL
[14]
  MIC: 0.5 µg/mL
[15]
  MIC: 1 µg/mL
